The nature of series [1]: Dynamic vapor sorption (DVS) water uptake. Type of series: physicochemical. How it is done:
DCS water vapour sorption isotherms were acquired on DVS instrument with microbalance and incubator (DVS-Intrinsic, Surface Measurement Systems, SMS). Powder samples were accurately weighed into disposable Al pans and placed on the sample position of the DVS instrument. A nitrogen overall follow rate of 200 mL/min (combined dry and humid stream) was used for humidification. […] For all RH steps, an equilibrium condition of dm/dt≤0.0005 wt %/min was used, with a minimum RH step time of 10 minutes and a maximum RH step time (timeout) of 360 minutes.

A short description of series [2]: Non-sink dissolution in FaSSIF (pH 6.5). Type of series: physicochemical. As to conditions: FaSSIF buffer solution (pH 6.5), FIG. 9. The method, then: Non-sink dissolution profiles for solid-state forms were acquired using shaked-flask method with excess solid material in FaSSIF medium (pH 6.5) with time-resolved sampling for determination of dissolved quantities of API.
Approx. 10-20 mg of solid sample were weighed into glass vials. 7 ml of respective medium (prewarmed to 37° C.) were added and the suspension was shaken at 450 rpm at 37° C. After 5 min, 10 min, 15 min, 30 min, 60 min, 120 min, 24 h and 48 h, […] was withdrawn and filtered through a 0.2 μm syringe filter. Clear filtrate was analysed by HPLC after suitable dilution to measure the amount of compound/form (may also be referred to as API) dissolved.
FaSSIF: 3 mM sodium taurocholate; 0.75 mM lecithin; 105.9 mM sodium chloride; 28.4 mM monobasic sodium phosphate and 8.7 mM sodium hydroxide, pH 6.5
Levels of dissolved compound/form were analysed by HPLC, with the following conditions: • Column: Chromolith RP-18e 100-3 mm • Solvent A: water/formic acid (999:1; v/v) • Solvent B: acetonitrile/formic acid (999:1; v/v) • Injection volume: 5 μL • Column temperature: 37° C. • HPLC-Gradient: […]

With `COc1cc2ncc3c(c2cc1-c1cn(C)nc1C)n(-c1c(F)cncc1OC)c(=O)n3C` [Form A2], the “Water adsorbed (DVS)” value in series [1] (up to a relative humidity of 100%, 25° C.) was below 2%.

As for `COc1cc2ncc3c(c2cc1-c1cn(C)nc1C)n(-c1c(F)cncc1OC)c(=O)n3C` [Form A3], the “Water adsorption (DVS), in words” value in series [1] (up to a relative humidity of about 70%, 25° C.) is given as “very little water adsorption”. `COc1cc2ncc3c(c2cc1-c1cn(C)nc1C)n(-c1c(F)cncc1OC)c(=O)n3C.O=S(=O)(O)CCS(=O)(=O)O` [Compound 1 edisylate]: in series [2], the “Initial dissolution rate compared with parent Compound 1” value is listed as “faster initial dissolution rate”.

Turning to `COc1cc2ncc3c(c2cc1-c1cn(C)nc1C)n(-c1c(F)cncc1OC)c(=O)n3C.O=C(O)/C=C/C(=O)O` [Compound 1 fumarate], the “Initial dissolution rate compared with parent Compound 1” value in series [2] is “faster initial dissolution rate”. Further, the Hygroscopic properties result in series [1] is “absence of hygroscopic properties”. As to `COc1cc2ncc3c(c2cc1-c1cn(C)nc1C)n(-c1c(F)cncc1OC)c(=O)n3C.O=S(=O)(O)c1ccc2ccccc2c1` [Compound 1 napsylate], the “Initial dissolution rate compared with parent Compound 1” value in series [2] was “faster initial dissolution rate”.

The record behind these values is patent US20250188080A1, “IMIDAZOLONYLQUINOLINE COMPOUNDS AND THERAPEUTIC USES THEREOF” (Merck Patent GmbH, priority 2019, published 2025).
